Where two headings read alike, the source gives them in different places.
Assays:
rat 17β-HSD 1 = target: T1, rat 17β-HSD 1 (Rattus norvegicus, UniProt P51657); assay: In vitro enzymatic activity, recombinant rat 17β-HSD 1; type: biochemical; settings: 2 µM compound, 15 nM 3H-estrone, read-out: Observed % inhibition
T1 construct: Full length cDNAs of several 17β-HSDs type 1 originating from different species were cloned; made in house; host or cells: E.coli BL21 DE3 Codon Plus RP
T1 sequence (P51657 1-344): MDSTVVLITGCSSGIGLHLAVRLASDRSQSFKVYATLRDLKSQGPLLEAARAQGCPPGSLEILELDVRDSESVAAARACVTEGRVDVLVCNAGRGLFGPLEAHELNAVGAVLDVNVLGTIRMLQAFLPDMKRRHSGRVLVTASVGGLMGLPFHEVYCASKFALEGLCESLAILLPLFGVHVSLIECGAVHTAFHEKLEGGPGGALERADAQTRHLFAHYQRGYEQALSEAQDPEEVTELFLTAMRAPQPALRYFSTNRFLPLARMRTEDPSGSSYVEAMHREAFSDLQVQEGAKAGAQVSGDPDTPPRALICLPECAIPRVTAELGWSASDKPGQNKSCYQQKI
Text: (§1) Full length cDNAs of several 17β-HSDs type 1 originating from different species were cloned either into the pQE30 vector (human 17β-HSD 1, coding for acc. no. NP_000404) for expression as His-Tag protein or into a modified pGex-2T vector [63] (mouse 17β-HSD 1, acc. no. NP_034605; rat 17β-HSD 1, acc. no. NP_036983; marmoset 17β-HSD 1, acc. no. AAG01115; porcine 17β-HSD 1, acc. no. NP_001121944) for expression as GST-fusion proteins. The marmoset 17β-HSD 1 enzyme sequence was updated by the missing N-terminal part (AF272013) and the new porcine sequence was submitted to GenBank (NP_001121944). Human 17β-HSDs 2, 4, 5 (AKR1C3, the latter kindly provided by Dr. T. Penning) and 7 were all cloned into the modified pGEX-2T vector. For 17β-HSD 4 only the SDR-domain converting the steroids was subcloned. Plasmids were transformed into E.coli BL21 DE3 Codon Plus RP (Stratagene) and enzyme expression was induced by 0.5 mM IPTG. After 4h incubation at 37°C with continuous shaking bacteria were pelleted by centrifugation at 10.000×g. Pellets were stored until use at −20°C.
(§2) The bacteria containing recombinant enzymes were resuspended in PBS and enzymatic assays were performed in 100 mM sodium phosphate buffer at pH 6.6 for the reductive reaction and at pH 7.7 for the oxidative reaction. […] All substrates were purchased from NEN/Perkin Elmer. The cofactors NADPH (Sigma; for reductive reactions) and NAD^+ (Serva, for oxidative reactions) were used at final concentrations of 0.5 mg/ml. […] The incubation at 37°C was stopped with 0.21 M ascorbic acid in methanol∶acetic acid 99∶1 (v∶v) after the time needed to convert approximately 30% of the substrate in a control assay with 1% DMSO, without inhibitor candidates. […] The solvent used was acetonitrile∶water (43∶57, v∶v) at a flow rate of 1 ml/min. Radioactivity was detected by online-scintillation counting (Berthold LB506D) after mixing with ReadyFlowIII (Beckman). Conversion was calculated from integration of substrate and product peaks. […] All assays were run in duplicates of two independent experiments and mean values are reported. The IC50 values were determined by the One Ligand Binding model of SigmaPlot kinetics module.

human 17β-HSD 2 = target: T2, human 17β-HSD 2 (Homo sapiens, UniProt P37059); assay: In vitro enzymatic activity, recombinant human 17β-HSD 2 (estradiol oxidation); type: biochemical; settings: 2 µM compound, 21 nM 3H-estradiol, NAD+, pH 7.7, read-out: Observed % inhibition
T2 construct: made in house; host or cells: E.coli BL21 DE3 Codon Plus RP
T2 sequence (P37059 1-387): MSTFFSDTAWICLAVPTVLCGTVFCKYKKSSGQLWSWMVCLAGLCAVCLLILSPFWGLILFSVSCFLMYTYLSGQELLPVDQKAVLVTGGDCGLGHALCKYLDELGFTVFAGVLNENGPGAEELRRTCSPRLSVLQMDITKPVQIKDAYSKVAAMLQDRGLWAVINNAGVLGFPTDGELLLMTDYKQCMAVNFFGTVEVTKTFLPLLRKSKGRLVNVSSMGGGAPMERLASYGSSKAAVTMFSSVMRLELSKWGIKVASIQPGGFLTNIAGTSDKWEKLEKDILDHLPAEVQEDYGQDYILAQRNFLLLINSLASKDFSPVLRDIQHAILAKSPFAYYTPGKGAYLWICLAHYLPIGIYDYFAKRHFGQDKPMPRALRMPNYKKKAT
Text: as §1, §2

marmoset 17β-HSD 1 = target: T3, marmoset 17β-HSD 1 (Callithrix jacchus, UniProt Q9GME2); assay: In vitro enzymatic activity, recombinant marmoset 17β-HSD 1; type: biochemical; settings: for inhibition at 2 µM: marmoset 17β-HSD 1, 2 µM compound, 15 nM 3H-estrone, read-out: Observed % inhibition
T3 sequence (Q9GME2 1-314): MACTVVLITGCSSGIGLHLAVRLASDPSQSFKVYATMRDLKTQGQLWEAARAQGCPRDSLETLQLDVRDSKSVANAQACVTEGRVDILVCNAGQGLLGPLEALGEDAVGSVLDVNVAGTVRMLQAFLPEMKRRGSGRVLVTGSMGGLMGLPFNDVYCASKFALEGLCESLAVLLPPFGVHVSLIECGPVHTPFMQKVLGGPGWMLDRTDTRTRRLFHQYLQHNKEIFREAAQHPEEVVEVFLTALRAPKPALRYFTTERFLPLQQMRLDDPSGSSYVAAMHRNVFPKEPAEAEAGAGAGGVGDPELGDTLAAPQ
Text: as §1, §2

[1] = system: 17β-HSD 1 orthologs of five species; assay: In vitro enzymatic activity, 17β-HSD 1 orthologs of five species taken together; type: biochemical, human, marmoset, mouse, pig, rat; settings: average over the 17β-HSD 1 orthologs of the species; 2 µM compound
porcine 17β-HSD 1 = target: T4, porcine 17β-HSD 1 (Sus scrofa, UniProt B2X0A4); assay: In vitro enzymatic activity, recombinant porcine 17β-HSD 1; type: biochemical, pig; settings: for IC50: Pig 17β-HSD 1, 0.005 µM to 5 µM inhibitor; for inhibition at 2 µM: read-out: Observed % inhibition
T4 sequence (B2X0A4 1-321): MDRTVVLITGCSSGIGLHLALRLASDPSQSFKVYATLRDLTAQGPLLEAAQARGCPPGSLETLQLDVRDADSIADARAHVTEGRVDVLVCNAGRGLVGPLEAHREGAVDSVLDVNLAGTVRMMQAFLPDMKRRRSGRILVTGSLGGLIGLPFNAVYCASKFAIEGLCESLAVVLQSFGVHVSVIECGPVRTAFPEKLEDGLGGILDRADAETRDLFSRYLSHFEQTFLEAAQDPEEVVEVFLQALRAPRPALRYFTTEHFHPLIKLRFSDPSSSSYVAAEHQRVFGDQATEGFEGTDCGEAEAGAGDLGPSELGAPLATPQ
Text: as §1, §2

[2] = pig 17β-HSD 1, 2 µM compound, 15 nM 3H-estrone

SMILES | inhibition at 2 µM (rat 17β-HSD 1) [%] | inhibition at 2 µM (human 17β-HSD 2) [%] | inhibition at 2 µM (marmoset 17β-HSD 1) [%] | Observed % inhibition, average [1] [%] | IC50 (porcine 17β-HSD 1) [µM] | inhibition at 2 µM (porcine 17β-HSD 1; [2]) [%] | IC50 (marmoset 17β-HSD 1) [µM] | inhibition at 2 µM (porcine 17β-HSD 1) [%]
C[C@]12CC[C@@H]3c4ccc(O)cc4CC[C@H]3[C@@H]1[C@@H](CNC(=O)c1ccc(F)cc1)CC2=O [Compound 1] | 47.1 | -4.3 | 30.6 | 42.1 |  |  |  | 
C[C@]12CC[C@@H]3c4ccc(O)cc4CC[C@H]3[C@@H]1[C@@H](CCCC(=O)N1CCOCC1)CC2=O [Compound 2] | 40.3 | 16.7 | 60.3 | 52.2 | 0.457 | 67 |  | 
Cc1cnc(NC(=O)CC[C@@H]2CC(=O)[C@@]3(C)CC[C@@H]4c5ccc(O)cc5CC[C@H]4[C@H]23)s1 [Compound 3] | 5.3 | 18.6 | 98.5 | 66.7 | 0.00034 | 105 | 0.0953 | 
COc1ccc(-c2cn(CCC[C@H]3CC(=O)[C@@]4(C)CC[C@@H]5c6ccc(O)cc6CC[C@H]5[C@H]34)nn2)cc1 [Compound 4] | 19.4 | -0.3 | 85.2 | 57.0 |  |  |  | 66.2
C[C@]12CC[C@@H]3c4ccc(O)cc4CC[C@H]3[C@@H]1C[C@H](CC(=O)NCc1cccnc1)C2=O [Compound 5, reference compound] | -2.4 | -3.2 | 45.6 | 48.4 |  | 95.7 |  | 
